Drawing on BindingDB's records for PubMed 35189320 (Dr.Vishwanath Karad MIT World Peace University, 2022), this text covers IC50 for two compounds.

For the test, the target named is Sterol O-acyltransferase 1 (Homo sapiens) (UniProt P35610). The test is described as follows: Inhibition of human ACAT1 in HepG2 cells assessed as inhibition of […] synthesis incubated for 1 hrs followed by 13C-addition of 13C-oleic acid pre-complexed with fatty acid free BSA for 6 hrs by LC/MS/MS analysis.
Sequence of Sterol O-acyltransferase 1 (Homo sapiens) (P35610 whole entry, looked up): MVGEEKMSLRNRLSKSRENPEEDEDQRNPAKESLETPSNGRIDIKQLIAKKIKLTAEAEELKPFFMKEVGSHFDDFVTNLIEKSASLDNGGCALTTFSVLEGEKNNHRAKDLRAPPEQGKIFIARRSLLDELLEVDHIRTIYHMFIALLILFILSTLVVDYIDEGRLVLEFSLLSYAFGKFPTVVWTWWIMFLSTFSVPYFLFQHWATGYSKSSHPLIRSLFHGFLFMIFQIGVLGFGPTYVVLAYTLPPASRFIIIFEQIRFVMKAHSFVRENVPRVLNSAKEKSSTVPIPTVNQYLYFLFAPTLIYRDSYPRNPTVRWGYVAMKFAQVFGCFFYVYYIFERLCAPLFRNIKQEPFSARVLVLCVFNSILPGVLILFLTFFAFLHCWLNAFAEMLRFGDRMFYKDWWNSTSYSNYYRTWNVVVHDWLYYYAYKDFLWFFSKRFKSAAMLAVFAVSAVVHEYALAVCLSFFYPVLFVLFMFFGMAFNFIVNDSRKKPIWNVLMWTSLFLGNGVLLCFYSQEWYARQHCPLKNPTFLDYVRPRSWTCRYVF

The IC50 is the concentration that inhibits the measured activity by half. On to `O=C(O)CC1CCC2(CC1)CCN(c1ccc(NC(=O)c3nnc(Nc4ccc(F)c(F)c4)o3)cn1)CC2`, for which the IC50 turned out to be 45 nM. The figure for `O=C(Nc1ccc(N2CCC3(CC2)CC(C(=O)O)C3)nc1)c1nnc(Nc2ccc(F)c(F)c2)o1` is 2500 nM.
